From US10359436B2, “Nuclear stress response in motor neuron disease and other neurological diseases” (DIGNITY HEALTH, priority 2013, dated 2019) come the findings set out here.

The test relates to HEK293 cells. In words: Quantitative immunocolocalization of RBM45 with the nuclear stress body marker HSF1 in stressed HEK293 cells. Type of test: cell-based. The following applies: mitoxantrone treatment as cellular stress, quantitative immunocolocalization analysis. The procedure:
An imaging-based approach combining immunofluorescence microscopy (IF), digital deconvolution (DD), and automated image analysis (IA) is used to examine RBM45 redistribution and colocalization with markers of subnuclear structures in response to heat shock and mitoxantrone (topoisomerase II inhibitor, genotoxic stress).
For immunocytochemistry experiments, HEK293 cells were grown and stained with antibodies, as above. Corresponding images were subjected to digital deconvolution, counting as above, and quantitative immunocolocalization with markers of subnuclear structures.
Digital deconvolution is a mathematical post-processing method that removes out of focus light from wide field fluorescent microscopic images, based on the mathematical modeling of the behavior of light in a given imaging system, called the point spread function (PSF). The effect of deconvolution is similar, in practice, to using a confocal microscope. […] Several deconvolution procedures exist, which vary in complexity/algorithm. […]
During image analysis, counts are based on thresholding of image pixel intensity values and counts are made using particle detection algorithms (vary size/circularity). On example of colocalization analysis is quantitative immunocolocalization analysis as described in Li et al., 2004. […]

For `O=C1c2c(O)ccc(O)c2C(=O)c2c(NCCNCCO)ccc(NCCNCCO)c21` [mitoxantrone], the “colocalization of RBM45 with the nuclear stress body marker HSF1” value is reported as “significant colocalization”.
